Measured values as given in US11952334B2, “Cocrystals of ubiquinone and compositions comprising them” (CENTER FOR INTELLIGENT RESEARCH IN CRYSTAL ENGINEERING, S.L., priority 2018, dated 2024).

Assays:
[1] = Particle size analysis (granulometry) by laser dispersion; assay type: physicochemical; conditions: dispersing fluid silicone oil
Experimental: Particle size can be determined, for example by laser dispersion on a Beckman Coulter LS13320 provided with a MLM (Micro Liquid Module) (measure range: 0.4 to 2000 μm; optic model: Fraunhofer.rdf, PIDS included).
Particle size analysis (granulometry) was performed by laser dispersion on a Beckman Coulter LS13320 provided with a MLM (Micro Liquid Module) (measure range: 0.4 to 2000 μm; optic model: Fraunhofer.rdf, PIDS included).
In a beaker about 10 ml of silicone oil and a microspoon of sample were placed. The sample was homogeneized by pipetting it repeatedly with a pasteurized pipette and by subjecting it to ultrasonic treatment (30 KHz; 200 W). The module was cleaned and filled with silicone oil as a dispersing fluid. Before each analysis, an optical alignment of the laser and a measure of the instrument noise was made.

[2] = Dissolution rate of ubiquinone vs cocrystals in FaSSIF-v2 medium (small-scale dissolution assay); assay type: physicochemical; conditions: for Dissolution rate: tablet 8 mm, exposed surface 0.5 cm^2, FaSSIF-v2 medium pH 6.50, 25° C., Noyes-Whitney fit; for Dissolution rate compared with ubiquinone (in words): FaSSIF-v2 medium pH 6.50, 25° C.
Experimental: 1. Dissolution Rate Experiments • Tablet production: tablets of 8 mm diameter were made using a manual hydraulic tablet press (Applied Measurements Ltd, UK) up to a compression weight of 70 Kg. 40-50 mg of compound, ubiquinone or co-crystal, were weighted. The total exposed surface area was 0.5 cm^2. • Medium: aqueous solution containing 106 mM sodium chloride, 28.4 mM monobasic sodium phosphate, and 8.7 mM sodium hydroxide, adjusted with sodium hydroxide to pH 6.50. • Dissolution tests were performed with a small-scale dissolution assay installed in a GlpKa™ titrator (Sirius Analytical Instruments, UK). • Dissolution time and temperature: 2 hours and 25° C. • Procedure: 15 mL of aqueous medium was added into the sample vial containing the tablet. Spectra were recorded every 30 seconds for 1 hour through Sirius D-PAS spectrometer, with a bifurcated optic fibre dip probe (Hellma Analytics). The medium was stirred at a constant rate.
2. HPLC-MS/MS Quantification • HPLC conditions: • Instrument: Agilent HPLC, consisting on two pumps, oven, and an autoinjector. • Column: Teknokroma C8, 150×4.6 mm, 5 μm. • Mobile phase: 5 mM ammonium formate in methanol:isopropanol (90:10). • Elution mode: isocratic. • Column temperature: 35° C. • Flow rate: 1 mL/min. • Injection volume: […]. • Retention time of ubiquinone: 8.5 min. • MS conditions: • Instrument: Linear Ion Trap Quadrupole LC/MS/MS Mass Spectrometer 6500 Q TRAP (AB SCIEX Instruments). • Curtain Gas: 25 p.s.i. • Source temperature: 400° C. • Ion Source Gas 1: 50 p.s.i. • Ion Source Gas 2: 50 p.s.i. • Ion Spray Voltage: 5500 V. • Mode: positive ionization. • Scan mode: MRM. • Transitions for ubiquinone: • Quantification: 880.8 (Q1)—197.1 (Q3); DP=100, CE=25; Dwell time=1000 ms • Confirmation: 880.8 (Q1)—149.3 (Q3); DP=90, CE=45; Dwell time=1000 ms.
Dissolution rates of the cocrystals were determined by monitoring the dissolution profile of the different coformers. Molar extinction coefficients (MEC) of the coformers were measured in water, assuming that they would be nearly identical in FaSSIF aqueous solution.
Dissolution rate of ubiquinone was determined spectrophotometrically. However, as MEC of ubiquinone couldn't be determined in water due to the low solubility of the compound in this medium, concentration of ubiquinone in the dissolution profile was determined by HPLC-MS/MS.
Noyes-Whitney first order exponential equation was fitted to experimental points, providing the dissolution rate values shown in Table 11 below.

| D10 [1] | D50 [1] | D90 [1] | Mean particle size [1] | Mode particle size [1] | Percentage of particles between 9.82 μm and 57.8 μm [1] | Dissolution rate [2] | Dissolution rate compared with ubiquinone (in words) [2] | Molecule |
| --- | --- | --- | --- | --- | --- | --- | --- | --- |
| 2.09 μm | 23.5 μm | 35.5 μm | 20.9 μm | 31.5 μm | 75.5% | 106 ± 23 µg/min | highest dissolution rate | COC1=C(OC)C(=O)C(C/C=C(\C)CC/C=C(\C)CC/C=C(\C)CC/C=C(\C)CC/C=C(\C)CC/C=C(\C)CC/C=C(\C)CC/C=C(\C)CC/C=C(\C)CCC=C(C)C)=C(C)C1=O.COC1=C(OC)C(=O)C(C/C=C(\C)CC/C=C(\C)CC/C=C(\C)CC/C=C(\C)CC/C=C(\C)CC/C=C(\C)CC/C=C(\C)CC/C=C(\C)CC/C=C(\C)CCC=C(C)C)=C(C)C1=O.Cc1cc(O)cc(O)c1.Cc1cc(O)cc(O)c1.Cc1cc(O)cc(O)c1 [Compound P57-VII, Ubiquinone:orcinol cocrystal (2:3)] |
| 9.46 μm | 22.2 μm | 34.0 μm | 22.0 μm | 31.5 μm | 88.9% | 3.5 ± 0.4 µg/min | – | COC1=C(OC)C(=O)C(C/C=C(\C)CC/C=C(\C)CC/C=C(\C)CC/C=C(\C)CC/C=C(\C)CC/C=C(\C)CC/C=C(\C)CC/C=C(\C)CC/C=C(\C)CCC=C(C)C)=C(C)C1=O.COC1=C(OC)C(=O)C(C/C=C(\C)CC/C=C(\C)CC/C=C(\C)CC/C=C(\C)CC/C=C(\C)CC/C=C(\C)CC/C=C(\C)CC/C=C(\C)CC/C=C(\C)CCC=C(C)C)=C(C)C1=O.O.Oc1cc(O)cc(O)c1 [Compound P57-VIII, Ubiquinone:phloroglucinol monohydrate cocrystal (2:1:1)] |
| – | – | – | 14.5 μm | 31.5 μm | 52.9% | 5.7 ± 0.8 µg/min | – | Ubiquinone:resorcinol cocrystal (2:1) [Compound P57-V] |

Second part, the molecule before the results:

| Molecule | D10 [1] | D50 [1] | D90 [1] | Mean particle size [1] | Mode particle size [1] | Percentage of particles between 9.82 μm and 57.8 μm [1] | Dissolution rate [2] | Dissolution rate compared with ubiquinone (in words) [2] |
| --- | --- | --- | --- | --- | --- | --- | --- | --- |
| COC1=C(OC)C(=O)C(C/C=C(\C)CC/C=C(\C)CC/C=C(\C)CC/C=C(\C)CC/C=C(\C)CC/C=C(\C)CC/C=C(\C)CC/C=C(\C)CC/C=C(\C)CCC=C(C)C)=C(C)C1=O [Compound P57, ubiquinone] | 5.19 μm | 28.4 μm | 41.7 μm | 26.0 μm | 38.0 μm | 83.1% | 0.0012 ± 0.0007 µg/min | – |
| COC1=C(OC)C(=O)C(C/C=C(\C)CC/C=C(\C)CC/C=C(\C)CC/C=C(\C)CC/C=C(\C)CC/C=C(\C)CC/C=C(\C)CC/C=C(\C)CC/C=C(\C)CCC=C(C)C)=C(C)C1=O.O=C(O)c1ccc(O)cc1 [Compound P57-III, Ubiquinone:4-hydroxybenzoic acid cocrystal (1:1)] | 2.51 μm | 18.2 μm | 36.1 μm | 19.0 μm | 34.6 μm | 70.5% | 56 ± 8 µg/min | highest dissolution rate |
| COC1=C(OC)C(=O)C(C/C=C(\C)CC/C=C(\C)CC/C=C(\C)CC/C=C(\C)CC/C=C(\C)CC/C=C(\C)CC/C=C(\C)CC/C=C(\C)CC/C=C(\C)CCC=C(C)C)=C(C)C1=O.COC1=C(OC)C(=O)C(C/C=C(\C)CC/C=C(\C)CC/C=C(\C)CC/C=C(\C)CC/C=C(\C)CC/C=C(\C)CC/C=C(\C)CC/C=C(\C)CC/C=C(\C)CCC=C(C)C)=C(C)C1=O.Oc1ccc(O)cc1 [Compound P57-VI, Ubiquinone:hydroquinone (2:1)] | 1.69 μm | 17.0 μm | 34.6 μm | 17.2 μm | 31.5 μm | 58.3% | – | – |
